In patent US8648085B2, “1, 5-dihydro-pyrazolo (3, 4-D) pyrimidin-4-one derivatives and their use as PDE9A mudulators for the treatment of CNS disorders” (Boehringer Ingelheim International GmbH, priority 2007, dated 2014):
pIC50: −log10 of the molar value.

Assays:
[1] = target: T1, PDE1C (Homo sapiens, UniProt Q14123); assay: PDE enzymatic activity assay (SPA), PDE1C, cAMP as substrate; type: biochemical; settings: ratio IC50 PDE1C / IC50 PDE9A; for illustrative purposes
T1 construct: made in house; host or cells: SF9 insect cells (crude lysate used as enzyme source)
Protocol: (§1) The PDE enzymatic activity assays were run as SPA, in general according to the protocol of the manufacturer (Amersham Biosciences, product number: TRKQ 7100). As enzyme source, lysate (PBS with 1% Triton X-100 supplemented with protease inhibitors, cell debris removed by centrifugation at 13.000 rpm for 30 min) of SF 9 cell expressing the human PDE of interest was used. The total protein amount included in the assay varied upon infection and production efficacy of the SF9 cells and lay in the range of […].
(§2) In general, the assay conditions were as follows: • total assay volume: 40 μl • protein amount: 0.1-50 ng • substrate concentration (cGMP or cAMP): 20 nM; ˜1 mCi/l • incubation time: 60 min at room temperature • final DMSO concentration: 1%
(§3) The assays were run in 384-well format. The test reagents as well as the enzyme and the substrate were diluted in assay buffer. The assay buffer contained 50 mM Tris, 8.3 mM MgCl2, 1.7 mM EGTA, 0.1% BSA, 0.05% Tween 20; the pH of assay buffer was adjusted to 7.5. In case activity of PDE1C was analysed, 50 nM Calmodulin and 3 mM CaCl2 were included in the assay buffer. In case PDE9 activity was analyzed, the reaction was stopped by applying a PDE9 specific inhibitor (e.g. compounds according to WO2004/099210). PDE1C was analysed with cAMP as substrate, and PDE9 was analyzed with cGMP as substrate.
(§4) IC50 can be calculated in a conventional way, eventually with the help of GraphPadPrism or other suited software setting the positive control as 100 and the negative control as 0. For calculation of IC50 usually 8 dilutions of the test compound ([…]) are to be selected and tested following the aforementioned protocol.

[2] = target: T2, PDE9A (Homo sapiens, UniProt O76083); assay: PDE enzymatic activity assay (SPA), PDE9A; type: biochemical; design: made in house; host or cells: SF9 insect cells (crude lysate used as enzyme source); settings: cGMP substrate, for illustrative purposes; for inhibition at 10 µM: 10 micromolar; for pIC50: given as ranges
Protocol: as §1, §2, §3
Calculation of % Inhibition:
The activity of the positive control (minus the negative control=background) is set to 100% and activity in the presence of test compound is expressed relative to these 100%.
Within this setting, an inhibition above 100% might be possible due to the nature of the variation of the positive control within the assay, however, in this case the reported % inhibition had been adjusted to 100%.
as §4

[3] = target: T2, PDE9A; settings: concentrations of up to 100 [mu]M; cited from earlier work

T2 sequence (O76083 whole entry): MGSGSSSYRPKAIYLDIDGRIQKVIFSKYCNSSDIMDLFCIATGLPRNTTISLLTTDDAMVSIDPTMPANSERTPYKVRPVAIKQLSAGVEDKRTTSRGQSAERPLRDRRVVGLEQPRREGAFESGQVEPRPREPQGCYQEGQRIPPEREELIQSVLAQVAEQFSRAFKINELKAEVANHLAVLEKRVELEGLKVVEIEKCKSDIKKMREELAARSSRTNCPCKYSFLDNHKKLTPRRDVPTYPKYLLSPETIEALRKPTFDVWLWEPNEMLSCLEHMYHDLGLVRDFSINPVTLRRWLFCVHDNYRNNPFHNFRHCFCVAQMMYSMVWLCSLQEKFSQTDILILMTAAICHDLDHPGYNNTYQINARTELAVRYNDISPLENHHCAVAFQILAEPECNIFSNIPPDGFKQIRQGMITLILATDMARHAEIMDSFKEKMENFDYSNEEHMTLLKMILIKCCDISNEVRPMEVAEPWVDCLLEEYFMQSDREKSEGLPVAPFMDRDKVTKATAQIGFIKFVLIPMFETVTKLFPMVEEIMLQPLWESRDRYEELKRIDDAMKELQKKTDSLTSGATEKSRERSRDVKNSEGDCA

SMILES | Selectivity = IC50 PDE 1C/IC50 PDE9A (both nanomolar) [1] | inhibition at 10 µM [2] [%] | pIC50 [2] | inhibition on the isolated enzyme (human PDE9A) [3]
O=c1[nH]c(Cc2ccccc2OC(F)(F)F)nc2c1cnn2-c1cccc(F)c1 [Example 26, 1-(3-Fluoro-phenyl)-6-(2-trifluoromethoxy-benzyl)-1,5-dihydro-pyrazolo[3,4-d]pyrimidin-4-one] | 24 | 51 | < 6.30 | 
Cc1cccc(Cl)c1-n1ncc2c(=O)[nH]c(Cc3ccccc3OC(F)(F)F)nc21 [Example 24, 1-(2-Chloro-6-methyl-phenyl)-6-(2-trifluoromethoxy-benzyl)-1,5-dihydro-pyrazolo[3,4-d]pyrimidin-4-one] | 49 | 87 | < 6.30 | 
O=c1[nH]c(Cc2ccccc2OC(F)(F)F)nc2c1cnn2-c1ccc(F)cc1 [Example 11, 1-(4-Fluoro-phenyl)-6-(2-trifluoromethoxy-benzyl)-1,5-dihydro-pyrazolo[3,4-d]pyrimidin-4-one] | 21 | 47 | < 6.30 | 
CCOc1cc(Cl)c(-n2ncc3c(=O)[nH]c(Cc4ccccc4OC(F)(F)F)nc32)cc1C [Example 27, 1-(2-Chloro-4-ethoxy-5-methyl-phenyl)-6-(2-trifluoromethoxy-benzyl)-1,5-dihydro-pyrazolo [3,4-d]pyrimidin-4-one] | 14 | 67 | < 6.30 | 
O=C(c1cccc(-n2ncc3c(=O)[nH]c(Cc4ccccc4OC(F)(F)F)nc32)c1)N1CCOCC1 [Example 38, 1-[3-(N-morpholino-carbonyl)-phenyl]-6-(2-trifluoromethoxy-benzyl)-1,5-dihydro-pyrazolo[3,4-d]pyrimidin-4-one] | 9 | 92 | < 6.30 | 
O=c1[nH]c(Cc2ccccc2OC(F)(F)F)nc2c1cnn2-c1cccc(F)c1F [Example 30-4, 1-(2,3-Difluoro-phenyl)-6-(2-trifluoromethoxy-benzyl)-1,5-dihydro-pyrazolo[3,4-d]pyrimidin-4-one] | 3 | 99 | 6.30 to 8.00 | 
OCCN(CCO)c1nc(N2CCCCC2)c2nc(N(CCO)CCO)nc(N3CCCCC3)c2n1 [dipyridamole] |  |  |  | no inhibition
Cc1cc(-n2ncc3c(=O)[nH]c(Cc4ccccc4OC(F)(F)F)nc32)c(Cl)cc1F [Example 23, 1-(2-Chloro-4-fluoro-5-methyl-phenyl)-6-(2-trifluoromethoxy-benzyl)-1,5-dihydro-pyrazolo[3,4-d]pyrimidin-4-one] | 46 | 85 | < 6.30 | 
Cc1ccc(Cl)c(-n2ncc3c(=O)[nH]c(Cc4ccccc4OC(F)(F)F)nc32)c1 [Example 3, 1-(2-Chloro-5-methyl-phenyl)-6-(2-trifluoromethoxy-benzyl)-1,5-dihydro-pyrazolo[3,4-d]pyrimidin-4-one] | 4 | 95 | 6.30 to 8.00 | 
O=c1[nH]c(Cc2ccccc2OC(F)(F)F)nc2c1cnn2-c1ccc(F)cc1O [Example 31, 1-(2-Hydroxy,4-fluoro-phenyl)-6-(2-trifluoromethoxy-benzyl)-1,5-dihydro-pyrazolo[3,4-d]pyrimidin-4-one] | 8 | 82 | < 6.30 | 
Cc1ccc(Cl)cc1-n1ncc2c(=O)[nH]c(Cc3ccccc3OC(F)(F)F)nc21 [Example 15, 1-(5-Chloro-2-methyl-phenyl)-6-(2-trifluoromethoxy-benzyl)-1,5-dihydro-pyrazolo[3,4-d]pyrimidin-4-one] | 271 | 94 | 6.30 to 8.00 | 
O=C(O)c1ccc(Cl)c(-n2ncc3c(=O)[nH]c(Cc4ccccc4OC(F)(F)F)nc32)c1 [Example 30-2, 1-(2-Chloro-5-carbox-phenyl)-6-(2-trifluoromethoxy-benzyl)-1,5-dihydro-pyrazolo[3,4-d]pyrimidin-4-one] | 55 | 100 | 6.30 to 8.00 | 
O=c1[nH]c(Cc2ccccc2OC(F)(F)F)nc2c1cnn2-c1cc(O)ccc1Cl [Example 30-3, 1-(2-Chloro-5-hydroxy-phenyl)-6-(2-trifluoromethoxy-benzyl)-1,5-dihydro-pyrazolo[3,4-d]pyrimidin-4-one] | 14 | 100 | 6.30 to 8.00 | 
Cc1cc(F)c(F)cc1-n1ncc2c(=O)[nH]c(Cc3ccccc3OC(F)(F)F)nc21 [Example 21, 1-(4,5-Difluoro-2-methyl-phenyl)-6-(2-trifluoromethoxy-benzyl)-1,5-dihydro-pyrazolo[3,4-d]pyrimidin-4-one] | 93 | 91 | 6.30 to 8.00 | 

Continued, in another order:

Selectivity = IC50 PDE 1C/IC50 PDE9A (both nanomolar) [1] | inhibition at 10 µM [2] [%] | pIC50 [2] | SMILES | inhibition on the isolated enzyme (human PDE9A) [3]
54 | 98 | 6.30 to 8.00 | CN(C)C(=O)c1ccc(Cl)c(-n2ncc3c(=O)[nH]c(Cc4ccccc4OC(F)(F)F)nc32)c1 [Example 36, 1-[2-Chloro-5-(dimethylamino-carbonyl)-phenyl]-6-(2-trifluoromethoxy-benzyl)-1,5-dihydro-pyrazolo[3,4-d]pyrimidin-4-one] | 
4 | 89 | 6.30 to 8.00 | O=c1[nH]c(Cc2ccccc2OC(F)(F)F)nc2c1cnn2-c1cccnc1 [Example 33, 6-(2-Trifluoromethoxy-benzyl)-1-(pyridin-3-yl)-1,5-dihydro-pyrazolo[3,4-d]pyrimidin-4-one] | 
9 | 91 | 6.30 to 8.00 | O=c1[nH]c(Cc2ccccc2OC(F)(F)F)nc2c1cnn2-c1cc(F)ccc1Br [Example 7, 1-(2-Bromo-5-fluoro-phenyl)-6-(2-trifluoromethoxy-benzyl)-1,5-dihydro-pyrazolo[3,4-d]pyrimidin-4-one] | 
7 | 96 | 6.30 to 8.00 | O=c1[nH]c(Cc2ccccc2OC(F)(F)F)nc2c1cnn2-c1cc(F)ccc1Cl [Example 5, 1-(2-Chloro-5-fluoro-phenyl)-6-(2-trifluoromethoxy-benzyl)-1,5-dihydro-pyrazolo[3,4-d]pyrimidin-4-one] | 
9 | 89 | 6.30 to 8.00 | O=c1[nH]c(Cc2ccccc2OC(F)(F)F)nc2c1cnn2-c1cccc(Cl)c1Cl [Example 29, 1-(2,3-Dichloro-phenyl)-6-(2-trifluoromethoxy-benzyl)-1,5-dihydro-pyrazolo[3,4-d]pyrimidin-4-one] | 
5 | 74 | 6.30 to 8.00 | Cc1cccc(-n2ncc3c(=O)[nH]c(Cc4ccccc4OC(F)(F)F)nc32)c1C [Example 19, 1-(2,3-Dimethyl-phenyl)-6-(2-trifluoromethoxy-benzyl)-1,5-dihydro-pyrazolo[3,4-d] pyrimidin-4-one] | 
88 | 102 | 6.30 to 8.00 | COc1ccc(Cl)cc1-n1ncc2c(=O)[nH]c(Cc3ccccc3OC(F)(F)F)nc21 [Example 4, 1-(5-Chloro-2-methoxy-phenyl)-6-(2-trifluoromethoxy-benzyl)-1,5-dihydro-pyrazolo[3,4-d]pyrimidin-4-one] | 
6 | 90 | 6.30 to 8.00 | O=c1[nH]c(Cc2ccccc2OC(F)(F)F)nc2c1cnn2-c1ccc(F)cc1Br [Example 9, 1-(2-Bromo-4-fluoro-phenyl)-6-(2-trifluoromethoxy-benzyl)-1,5-dihydro-pyrazolo[3,4-d]pyrimidin-4-one] | 
9 | 98 | 6.30 to 8.00 | Cc1cc(F)ccc1-n1ncc2c(=O)[nH]c(Cc3ccccc3OC(F)(F)F)nc21 [Example 17, 1-(4-Fluoro-2-methyl-phenyl)-6-(2-trifluoromethoxy-benzyl)-1,5-dihydro-pyrazolo[3,4-d]pyrimidin-4-one] | 
112 | 88 | 6.30 to 8.00 | O=c1[nH]c(Cc2ccccc2OC(F)(F)F)nc2c1cnn2-c1cc(Br)ccc1Cl [Example 6, 1-(5-Bromo-2-chloro-phenyl)-6-(2-trifluoromethoxy-benzyl)-1,5-dihydro-pyrazolo[3,4-d]pyrimidin-4-one] | 
